Experimental findings from patent publication US20250295617A1, “METABOLITES FOR TREATMENT AND PREVENTION OF AUTOIMMUNE DISEASE” (MONASH UNIVERSITY, priority 2016, published 2025) are described below.

The structures appear in SMILES notation.

In one test the test system is female NOD mice. To be noted: acetate in drinking water from 5 weeks of age. How it is done:
To standardise microbiota, prior to beginning diets mice from multiple litters were mixed and randomly allocated to groups. The purified diets used were based on a balanced modification of the AIN93-G diet as described previously (Bajka et al., 2006). Mice were fed for 3-5 weeks starting at 3, 5 or 10 weeks of age. SCFAs in faeces, blood and caecal content were analysed as previously described in (Bajka et al., 2006). Diabetes was monitored as previously described (Mariño et al., 2009).
To determine whether oral administration of acetate (to increase its concentration in the circulation) could modulate disease progression, acetate was added to the drinking water of NOD female mice.

The test system of another test is pancreatic islets. Put plainly: Insulitis scoring of pancreatic islets. It counts as in vivo, mouse. To be noted: 10 weeks of age, 5 weeks after starting acetate treatment. An excerpt:
Pancreatic tissue was processed and stained using standard procedures. For insulitis scoring, pancreata sections were taken at 3 […] (100 μm apart). At least 100 islets were scored from 5 to 15 mice. Islets were graded according to the following system: Grade 0—no indication of insulitis, Grade 1—<25% infiltration, Grade 2—25-50% infiltration, Grade 3—50-75% infiltration, and Grade 4—>75% infiltration.

`CC(=O)[O-].[Na+]` [acetate, sodium acetate]: the development of diabetes entry with female NOD mice (vs controls) is “significantly delayed”. The same compound registered a T1D incidence in the test with female NOD mice (at age 30 weeks) of 40%. For the same compound, the “insulitis (islet infiltration)” value with pancreatic islets was “more pancreatic islets without immune cell infiltration, and fewer islets with high-grade infiltration”.
